Measurements as given in patent US20080139611A1, “METHODS OF USING 4-PHENYLAMINOQUINOLINES AS TOPICAL NON-STEROIDAL ANTIINFLAMMATORY COMPOUNDS” (priority 2006, published 2008).

Experiments:
[1] = system: PMA-induced ear swelling; assay: PMA-induced mouse ear swelling (topical anti-inflammatory activity); type: in vivo, CD-1 (Crl.) derived male mice; conditions: topical 3 mg/ear applied 30 min before and 15 min after PMA, measured 6 hours after PMA, >=30% considered significant
Description: A compound can be tested for topical anti-inflammatory activity by measuring the degree of inhibition of edema produced in a mouse ear that has been irritated by the application of a solution of a phorbol ester. [2-(7-Trifluoromethyl-quinolin-4-ylamino)-phenyl]-acetic acid sodium salt was tested for its anti-inflammatory activity as follows: Groups of 6 CD-1 (Crl.) derived male mice weighing 24±2 g were used. Phorbol 12-Myristate 13-Acetate (PMA 4 μg in 20 μl of Acetone) was applied topically to the anterior and posterior surfaces of the right ear to each animal. Vehicle (Ethanol:Acetone/1:1, 20 μl/ear) and [2-(7-Trifluoromethyl-quinolin-4-ylamino)-phenyl]-acetic acid sodium salt at 3 mg/ear were each applied 30 minutes before and 15 minutes after Phorbol 12-Myristate 13-Acetate challenge. Indomethacin (3 mg in 20 μl/ear of acetone:ethanol/1:1) as the positive control was similarly applied at the same timing. Ear swelling was then measured by a Dyer model micrometer gauge at 6 hours after Phorbol 12 Myristate 13-Acetate application as an index of inflammation. Percent inhibition was calculated according to the formula: ([Ic−It]/Ic)×100%, where Ic and It refer to increase of ear thickness (mm) in control and treated mice, respectively. Inhibition of 30 percent or more (≧30%) in ear swelling is considered significant anti-inflammatory activity.
[2-(7-Trifluoromethyl-quinolin-4-ylamino)-phenyl]-acetic acid sodium salt caused significant inhibition (80%) of the PMA-induced ear swelling vs vehicle control. […] When [2-(7-Trifluoromethyl-quinolin-4-ylamino)-phenyl]-acetic acid methyl ester was tested in this assay, the inhibition of ear swelling was not significant (20% inhibition).

[2] = biological target: T1, Human recombinant Cyclooxygenase-2 (Homo sapiens, UniProt P35354); assay: COX-2 inhibition, human recombinant enzyme (PGE2 formation, EIA); type: biochemical; conditions: human recombinant COX-2 expressed in Sf21 cells; 7 concentrations 0.01-10 μM; 0.3 μM arachidonic acid
T1 construct: purchased Sigma C-0858; host or cells: Sf21 cells
T1 sequence (P35354 18-604): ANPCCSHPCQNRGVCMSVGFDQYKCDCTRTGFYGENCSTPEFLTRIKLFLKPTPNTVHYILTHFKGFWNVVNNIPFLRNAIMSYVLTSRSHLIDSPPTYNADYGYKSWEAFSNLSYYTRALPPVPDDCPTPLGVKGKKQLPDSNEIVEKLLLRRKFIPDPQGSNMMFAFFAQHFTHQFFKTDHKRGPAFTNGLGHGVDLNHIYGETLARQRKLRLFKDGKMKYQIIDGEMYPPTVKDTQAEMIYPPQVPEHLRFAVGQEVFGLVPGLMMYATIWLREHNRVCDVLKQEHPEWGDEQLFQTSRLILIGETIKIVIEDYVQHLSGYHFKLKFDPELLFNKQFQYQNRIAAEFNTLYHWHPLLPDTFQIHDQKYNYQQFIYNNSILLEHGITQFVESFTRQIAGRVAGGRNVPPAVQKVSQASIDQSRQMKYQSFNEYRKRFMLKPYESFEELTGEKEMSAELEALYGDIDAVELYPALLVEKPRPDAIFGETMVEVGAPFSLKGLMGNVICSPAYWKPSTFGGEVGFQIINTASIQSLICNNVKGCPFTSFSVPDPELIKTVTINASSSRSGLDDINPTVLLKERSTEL
Description: Compounds can be tested for their ability to inhibit the COX-2 enzyme by the following procedure: Human recombinant Cyclooxygenase-2 expressed in Sf21 cells (Sigma, C-0858) is used. Test compound and/or vehicle is preincubated with 0.11 U cyclooxygenase-2, 1 mM reduced GSH, 500 μM phenol and 1 μM hematin for 15 minutes at 37° C. in Tris-HCl buffer pH 7.7. The reaction is initiated by addition of 0.3 μM arachidonic acid and terminated after 5 minutes by further addition of 1 N HCl. Following centrifugation, substrate conversion to PGE 2 is measured by an Amersham EIA kit.
[2-(7-Trifluoromethyl-quinolin-4-ylamino)-phenyl]-acetic acid hydrochloride was screened at 7 concentrations to test for inhibition of the enzyme: 0.01 uM, 0.03 μM, 0.1 μM, 0.3 μM, 1 μM, 3 μM and 10 μM.

[3] = biological target: T2, COX-1 enzyme (Homo sapiens, UniProt P23219); assay: COX-1 inhibition in human platelets (PGE2 formation, EIA); type: cell-based
T2 construct: Human platelets are used; endogenous in cells; host or cells: human platelets
T2 sequence (P23219 24-599): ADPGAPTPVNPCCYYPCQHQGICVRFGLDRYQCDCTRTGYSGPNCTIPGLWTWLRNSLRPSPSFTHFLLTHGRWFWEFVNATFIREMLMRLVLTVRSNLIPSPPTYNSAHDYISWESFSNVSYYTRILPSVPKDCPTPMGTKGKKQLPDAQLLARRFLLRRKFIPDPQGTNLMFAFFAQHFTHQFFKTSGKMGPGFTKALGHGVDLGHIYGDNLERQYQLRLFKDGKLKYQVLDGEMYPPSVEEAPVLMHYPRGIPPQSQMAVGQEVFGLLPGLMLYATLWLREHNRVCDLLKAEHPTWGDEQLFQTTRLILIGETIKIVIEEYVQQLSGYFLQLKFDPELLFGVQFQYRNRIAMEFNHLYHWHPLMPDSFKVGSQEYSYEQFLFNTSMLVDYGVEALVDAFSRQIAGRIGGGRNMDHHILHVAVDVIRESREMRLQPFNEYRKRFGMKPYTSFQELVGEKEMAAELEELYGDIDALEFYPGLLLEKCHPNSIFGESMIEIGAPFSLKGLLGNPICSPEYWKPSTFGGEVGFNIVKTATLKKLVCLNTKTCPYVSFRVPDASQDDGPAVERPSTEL
Description: Compounds can be tested for their ability to inhibit the COX-1 enzyme by the following procedure: Human platelets are used. Test compound and/or vehicle is incubated with cells (5×10^7/ml) in modified HEPES buffer pH 7.4 for 15 minutes at 37° C. The reaction is initiated by addition of 100 μM arachidonic acid for another 15 minute incubation period and terminated by further addition of 1 N HCl. An aliquot is removed and the amount of PGE 2 formed is determined spectrophotometrically by enzyme immunoassay (“EIA”) kit.
[2-(7-Trifluoromethyl-quinolin-4-ylamino)-phenyl]-acetic acid hydrochloride was screened at 6 concentrations to test for inhibition of the enzyme: 0.1 μM, 0.3 μM, 1 μM, 3 μM, 10 μM and 30 μM. [2-(7-Trifluoromethyl-quinolin-4-ylamino)-phenyl]-acetic acid hydrochloride inhibited the COX-1 enzyme with an IC50 of <0.1 μM in this assay.

Row | melting point | IC50 [2] | IC50 ([3]; screened at 6 concentrations 0.1-30 μM, 100 μM arachidonic acid) | IC50 ([3]; tested separately at 3 concentrations (0.01, 0.03 and 0.1 μM)) | SMILES | inhibition of PMA-induced ear swelling vs vehicle control [1]
1 | 113 to 116 °C |  |  |  | Cl.O=C(O)Cc1ccccc1Nc1ccnc2cc(Cl)ccc12 | 
2 |  |  |  |  | COc1ccc2c(c1)c(CC(=O)O)c(C)n2C(=O)c1ccc(Cl)cc1 [Indomethacin, reference compound] | 77%
3 | 103 to 104 °C | 61 nM | < 100 nM | 81 nM | Cl.O=C(O)Cc1ccccc1Nc1ccnc2cc(C(F)(F)F)ccc12 [[2-(7-Trifluoromethyl-quinolin-4-ylamino)-phenyl]-acetic acid hydrochloride] | 75%
4 |  |  |  |  | COC(=O)Cc1ccccc1Nc1ccnc2cc(C(F)(F)F)ccc12 [[2-(7-Trifluoromethyl-quinolin-4-ylamino)-phenyl]-acetic acid methyl ester] | 20%
5 |  |  |  |  | O=C([O-])Cc1ccccc1Nc1ccnc2cc(C(F)(F)F)ccc12.[Na+] [[2-(7-Trifluoromethyl-quinolin-4-ylamino)-phenyl]-acetic acid sodium salt] | 80%
